Measured values reported in patent US20240139220A1, “TREATMENT OF HPV INFECTION” (priority 2022, published 2024).

Key:
[1] = In vitro tissue permeation test in human cervical tissue; type: in vitro ADME; conditions: 0.1% gel, FIG. 116
Source text: (§1) FIG. 116 is an in vitro tissue permeation test in vaginal tissue comparing Compound II to ABI-1968. […] Bars B and C show the tissue penetration of a 0.1% Compound II gel in […]. […] This may be a contributing factor to the performance of ABI-1968 in clinical studies. […] This is described in Example 41.

[2] = Ex vivo permeation and penetration across porcine vaginal tissue (Franz diffusion cells, IVPT); type: in vitro ADME; conditions: porcine vaginal tissue, FIG. 116; Compound II 0.1% gel, ABI-1968 1% and 3% formulations
Source text: as §1
Freshly harvested porcine vaginal tissue was procured from local slaughterhouse in an ice box. The vaginal tissue was cut open to expose the mucosal surface and tissue was cleaned by gentle flow of PBS pH 7.4. The porcine vaginal tissue was cut into circular portions (approximately 2 cm^2) with help of a […] punch.
The circular portion of tissue was sandwiched between two chambers of a Franz diffusion cell with an active diffusion area of 1 cm^2, and the mucosal layer was exposed to the donor chambers. The resistance across porcine vaginal tissue was measured using a wave form generator to ensure the integrity of the tissue segment used for the permeation study. Porcine vaginal tissue with resistance of ≥3 KΩ.cm^2 was used for study. The receiver chamber was filled with 8 ml of 5% solutol PBS 7.4 pH, which was stirred at 600 rpm with a 3 mm magnetic stir bar and the temperature was maintained at 37° C. with a circulating water bath.
The ˜200 mg of gel was filled into tared 1 mL syringe and gel was dispensed to donor chamber. The gel was spread on to mucosal surface with pre weighed applicator. After loading and spreading of the gel onto surface of mucosal surface, the weight of 1 mL syringe and applicator was noted to determine the exact amount of gel loaded into donor chamber.
Time course (2 h, 4 h and 8 h) porcine vaginal permeation studies were performed. After loading gel, 500 μL samples were withdrawn from the receiver compartment at different time intervals and each time an equal volume of fresh receiver media was used to replace withdrawn samples. The sample withdrawn at each time interval were stored immediately in −20° C. until analysis. After 2, 4 and 8 h, the formulation was removed from the donor chamber with help of syringe and cleaned with cotton swab. The tissue was removed and washed gently with wash solution (50% methanol in water) 5 times and alternatively cleaning with cotton swab.
An 8 mm punch of active diffusion area of washed porcine vaginal tissue was removed, weighed and transferred into a tube. This tube was immediately placed into dry ice for ˜15 min. After specified time, tissue was removed and placed in precooled dish. The tissue was minced into smaller pieces on a dish with a precooled surgical blade. The minced tissue was transferred to sample tubes and dish was rinsed with 1 ml of 5% solutol in PBS 7.4 pH and transferred to same tissue sample tube. These tubes were stored in −70° C. until analysis.
The samples stored at −20° C. was removed and thawed at room temperature for 30 min. The drug from receptor fluid was centrifuged at 13000 rpm for 5 min and to 200 μL of supernatant equal volume of extraction solvent was added. These samples were centrifuged at 13000 rpm for 5 min and supernatant was transferred into vials for analysis.
The minced tissue samples stored at −70° C. were removed and thawed at room temperature for ˜90 min. The samples were kept for shaking at room temperature for 4 h in BioShaker. After 4 h, samples were centrifuged at 13000 rpm for 5 min. To 100 μL of supernatant, 400 μL of extraction solvent was added and vortexed for 2 min. […]

[3] = Hygroscicity by Dynamic Vapor Sorption (DVS) at 25° C.; type: physicochemical
Experimental: Hygroscopicity was investigated by DVS at 25° C., using the following method: […]

CCOC(=O)[C@H](C)N[P@@](=O)(COCCn1cnc2c(OC)nc(N)nc21)OCc1ccccc1.O=C(O)/C=C/C(=O)O [Compound II]
Tissue penetration [1]: high tissue penetration | Tissue penetration [2]: high tissue penetration | XRPD pattern after humidity cycle ([3]; cycle of 40-0-95-0-45% relative humidity): does not change | Water content retained ([3]; exposed to a cycle of 40-0-95-0-45% relative humidity): about 0.25%
